Measured values from the supplement of paper PMC12463676, “Small-molecule dissolution of stress granules by redox modulation benefits ALS models” (Nature Chemical Biology, 2025).

What was measured:
[1] = compound: O=[As]([O-])(O)O.[K+] [potassium arsenate]; experiment: thermal stability z-score vs DMSO; higher = more thermally stabilized by treatment; settings: HeLa; arsenate concentration 1 mM
Protocol: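 Cellular thermal proteome profiling in HeLa cells treated with 1 mM arsenate for 1 h (DMSO pretreatment), heated to ten temperatures (37-66.3 °C). Soluble protein was quantified by TMT mass spectrometry relative to DMSO controls; the thermal stability score was transformed to a z-score; mean of n = 3 experiments.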

[2] = compound: NC(=O)CCCCC1CCSS1 [lipoamide]; experiment: as above; settings: HeLa, lipoamide concentration 100 µM
Protocol: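 Cellular thermal proteome profiling in HeLa cells. Cells were treated with 100 µM lipoamide for 1 h, with or without 1 mM arsenate for a further 1 h, then heated to ten temperatures (37-66.3 °C), and soluble protein was quantified by TMT mass spectrometry relative to 0.1% DMSO controls. The thermal stability score (sum of log2 fold changes minus the abundance score) was transformed to a z-score; mean of n = 3 experiments.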

[3] = arsenate co-treatment: 1 mM arsenate 1 h
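Further: each temperature applied for 3 min, abundance score taken as mean log2 fold change at the two lowest temperatures, z-score obtained by mean subtraction and division by SD.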

UniProt Q9HBH0, sequence (Q9HBH0 whole entry): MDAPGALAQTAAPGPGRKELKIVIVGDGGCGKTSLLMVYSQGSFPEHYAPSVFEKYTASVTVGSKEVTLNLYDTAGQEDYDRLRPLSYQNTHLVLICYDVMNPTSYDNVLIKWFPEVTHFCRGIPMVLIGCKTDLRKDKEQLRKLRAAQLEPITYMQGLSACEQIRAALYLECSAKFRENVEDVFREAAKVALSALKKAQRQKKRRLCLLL
UniProt P40937, sequence (P40937 whole entry): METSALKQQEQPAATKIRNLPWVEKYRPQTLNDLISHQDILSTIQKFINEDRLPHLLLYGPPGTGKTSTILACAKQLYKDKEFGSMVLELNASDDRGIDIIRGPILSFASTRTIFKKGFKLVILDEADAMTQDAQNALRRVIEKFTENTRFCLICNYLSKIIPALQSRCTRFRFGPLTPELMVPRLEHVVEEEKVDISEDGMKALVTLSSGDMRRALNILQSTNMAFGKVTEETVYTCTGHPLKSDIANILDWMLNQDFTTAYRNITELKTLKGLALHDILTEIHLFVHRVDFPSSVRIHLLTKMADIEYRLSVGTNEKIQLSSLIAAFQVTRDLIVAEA
UniProt O43665, sequence (O43665 whole entry): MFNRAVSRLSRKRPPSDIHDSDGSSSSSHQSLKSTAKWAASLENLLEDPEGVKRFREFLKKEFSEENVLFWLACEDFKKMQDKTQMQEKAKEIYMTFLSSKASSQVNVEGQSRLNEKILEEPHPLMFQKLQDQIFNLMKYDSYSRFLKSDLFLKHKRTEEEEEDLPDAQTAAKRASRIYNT
UniProt O94955, sequence (O94955 whole entry): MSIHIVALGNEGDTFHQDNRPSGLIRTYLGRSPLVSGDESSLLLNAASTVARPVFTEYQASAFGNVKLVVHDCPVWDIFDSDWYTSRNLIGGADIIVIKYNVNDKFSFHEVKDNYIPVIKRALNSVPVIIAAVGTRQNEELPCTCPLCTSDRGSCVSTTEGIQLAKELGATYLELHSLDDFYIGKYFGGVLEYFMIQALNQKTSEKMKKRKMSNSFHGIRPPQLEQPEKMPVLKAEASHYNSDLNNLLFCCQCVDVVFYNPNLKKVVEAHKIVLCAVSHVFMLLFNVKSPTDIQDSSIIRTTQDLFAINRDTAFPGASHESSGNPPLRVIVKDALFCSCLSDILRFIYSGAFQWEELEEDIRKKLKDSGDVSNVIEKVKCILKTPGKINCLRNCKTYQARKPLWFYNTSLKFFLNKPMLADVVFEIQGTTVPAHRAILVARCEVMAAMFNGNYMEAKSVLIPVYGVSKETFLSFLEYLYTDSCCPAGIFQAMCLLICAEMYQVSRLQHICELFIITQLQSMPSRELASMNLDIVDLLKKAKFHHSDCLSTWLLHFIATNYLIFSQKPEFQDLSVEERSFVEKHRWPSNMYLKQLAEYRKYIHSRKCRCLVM
UniProt Q9BRS2, sequence (Q9BRS2 whole entry): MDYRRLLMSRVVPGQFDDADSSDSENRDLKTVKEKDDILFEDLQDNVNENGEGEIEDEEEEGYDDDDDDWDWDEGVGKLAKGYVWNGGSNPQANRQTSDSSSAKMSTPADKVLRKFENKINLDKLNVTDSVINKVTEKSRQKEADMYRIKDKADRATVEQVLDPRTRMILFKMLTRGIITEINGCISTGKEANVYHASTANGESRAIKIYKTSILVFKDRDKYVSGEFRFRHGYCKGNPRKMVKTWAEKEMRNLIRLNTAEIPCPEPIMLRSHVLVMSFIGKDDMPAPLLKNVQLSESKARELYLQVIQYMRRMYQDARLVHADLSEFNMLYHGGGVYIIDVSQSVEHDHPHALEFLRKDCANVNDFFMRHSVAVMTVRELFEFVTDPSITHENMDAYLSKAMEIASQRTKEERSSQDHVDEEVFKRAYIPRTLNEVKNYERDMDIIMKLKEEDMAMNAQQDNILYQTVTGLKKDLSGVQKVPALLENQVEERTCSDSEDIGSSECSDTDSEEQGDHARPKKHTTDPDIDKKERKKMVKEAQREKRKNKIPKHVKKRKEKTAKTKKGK
UniProt P35249, sequence (P35249 whole entry): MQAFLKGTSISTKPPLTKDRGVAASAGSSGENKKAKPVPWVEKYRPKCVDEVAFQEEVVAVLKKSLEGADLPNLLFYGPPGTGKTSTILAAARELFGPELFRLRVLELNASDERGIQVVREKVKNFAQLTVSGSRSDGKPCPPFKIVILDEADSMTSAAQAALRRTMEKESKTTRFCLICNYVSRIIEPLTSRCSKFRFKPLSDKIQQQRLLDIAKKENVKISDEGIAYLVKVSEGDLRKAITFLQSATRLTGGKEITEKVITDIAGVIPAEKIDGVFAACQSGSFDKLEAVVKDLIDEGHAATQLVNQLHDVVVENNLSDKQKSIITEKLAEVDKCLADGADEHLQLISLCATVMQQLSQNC
UniProt P84095, sequence (P84095 whole entry): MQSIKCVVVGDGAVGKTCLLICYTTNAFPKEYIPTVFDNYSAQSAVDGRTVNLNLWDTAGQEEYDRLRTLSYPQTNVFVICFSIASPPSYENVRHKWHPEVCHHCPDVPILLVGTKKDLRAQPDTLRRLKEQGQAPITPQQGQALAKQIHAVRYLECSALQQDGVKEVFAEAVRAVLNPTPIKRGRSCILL
UniProt Q13671, sequence (Q13671 whole entry): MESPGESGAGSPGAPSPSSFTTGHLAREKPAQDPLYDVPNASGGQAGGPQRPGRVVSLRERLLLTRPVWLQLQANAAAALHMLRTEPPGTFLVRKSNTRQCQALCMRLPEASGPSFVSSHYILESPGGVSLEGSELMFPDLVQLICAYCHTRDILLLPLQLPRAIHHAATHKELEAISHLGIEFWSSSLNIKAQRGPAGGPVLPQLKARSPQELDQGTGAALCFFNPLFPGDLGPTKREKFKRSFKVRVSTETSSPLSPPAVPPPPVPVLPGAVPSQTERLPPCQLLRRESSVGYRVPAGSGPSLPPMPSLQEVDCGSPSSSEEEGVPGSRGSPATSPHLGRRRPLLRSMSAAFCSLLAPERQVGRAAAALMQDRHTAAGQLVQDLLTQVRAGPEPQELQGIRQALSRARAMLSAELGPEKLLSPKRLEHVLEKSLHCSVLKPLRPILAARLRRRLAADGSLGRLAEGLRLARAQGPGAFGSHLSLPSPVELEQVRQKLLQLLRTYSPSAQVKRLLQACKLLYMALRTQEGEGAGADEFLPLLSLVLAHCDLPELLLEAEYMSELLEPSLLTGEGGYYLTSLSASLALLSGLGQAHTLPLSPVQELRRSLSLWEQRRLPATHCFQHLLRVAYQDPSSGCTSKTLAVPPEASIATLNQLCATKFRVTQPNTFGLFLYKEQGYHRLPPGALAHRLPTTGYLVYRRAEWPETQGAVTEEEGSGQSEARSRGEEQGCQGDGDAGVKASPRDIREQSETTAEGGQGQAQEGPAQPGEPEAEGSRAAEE
UniProt Q6PJF5, sequence (Q6PJF5 whole entry): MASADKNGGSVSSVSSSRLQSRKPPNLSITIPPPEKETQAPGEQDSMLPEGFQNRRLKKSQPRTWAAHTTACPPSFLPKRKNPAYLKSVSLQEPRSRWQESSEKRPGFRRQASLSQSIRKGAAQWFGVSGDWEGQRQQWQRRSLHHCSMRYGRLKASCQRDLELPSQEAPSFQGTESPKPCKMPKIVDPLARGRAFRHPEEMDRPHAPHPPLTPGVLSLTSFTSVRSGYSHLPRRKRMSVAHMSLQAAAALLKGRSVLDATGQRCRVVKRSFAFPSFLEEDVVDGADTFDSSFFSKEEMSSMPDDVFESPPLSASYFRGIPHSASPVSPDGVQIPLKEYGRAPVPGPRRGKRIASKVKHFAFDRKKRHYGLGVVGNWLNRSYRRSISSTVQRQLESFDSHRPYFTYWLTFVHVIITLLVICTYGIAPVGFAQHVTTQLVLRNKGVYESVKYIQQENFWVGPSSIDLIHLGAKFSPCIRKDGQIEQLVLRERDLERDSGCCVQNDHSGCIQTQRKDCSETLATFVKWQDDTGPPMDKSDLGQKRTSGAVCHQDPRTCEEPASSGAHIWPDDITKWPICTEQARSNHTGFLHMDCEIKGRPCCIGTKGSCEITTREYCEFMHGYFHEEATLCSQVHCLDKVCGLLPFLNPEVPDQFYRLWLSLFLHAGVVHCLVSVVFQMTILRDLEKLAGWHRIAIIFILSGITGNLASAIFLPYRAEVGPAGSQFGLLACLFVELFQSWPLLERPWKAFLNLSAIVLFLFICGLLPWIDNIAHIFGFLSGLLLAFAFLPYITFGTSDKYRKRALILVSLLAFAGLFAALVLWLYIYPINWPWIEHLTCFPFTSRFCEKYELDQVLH
UniProt Q13546, sequence (Q13546 whole entry): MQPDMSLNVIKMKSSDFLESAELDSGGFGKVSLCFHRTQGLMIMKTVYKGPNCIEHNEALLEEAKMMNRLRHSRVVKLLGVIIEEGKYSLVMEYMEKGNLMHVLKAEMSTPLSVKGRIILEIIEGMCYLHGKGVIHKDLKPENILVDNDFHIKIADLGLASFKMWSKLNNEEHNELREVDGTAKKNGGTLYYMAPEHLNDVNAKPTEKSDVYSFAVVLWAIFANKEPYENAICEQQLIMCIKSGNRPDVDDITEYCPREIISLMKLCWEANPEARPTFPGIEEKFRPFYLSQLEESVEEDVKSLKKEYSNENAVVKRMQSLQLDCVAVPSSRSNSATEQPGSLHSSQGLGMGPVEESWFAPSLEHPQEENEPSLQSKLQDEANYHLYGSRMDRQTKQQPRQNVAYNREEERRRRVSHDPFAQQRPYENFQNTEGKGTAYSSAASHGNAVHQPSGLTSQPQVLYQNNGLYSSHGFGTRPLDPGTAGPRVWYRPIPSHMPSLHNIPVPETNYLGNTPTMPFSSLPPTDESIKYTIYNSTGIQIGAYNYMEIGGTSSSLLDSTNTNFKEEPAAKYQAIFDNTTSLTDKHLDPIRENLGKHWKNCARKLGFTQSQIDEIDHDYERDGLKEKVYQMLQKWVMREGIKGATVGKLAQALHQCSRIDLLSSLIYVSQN
UniProt P61586, sequence (P61586 whole entry): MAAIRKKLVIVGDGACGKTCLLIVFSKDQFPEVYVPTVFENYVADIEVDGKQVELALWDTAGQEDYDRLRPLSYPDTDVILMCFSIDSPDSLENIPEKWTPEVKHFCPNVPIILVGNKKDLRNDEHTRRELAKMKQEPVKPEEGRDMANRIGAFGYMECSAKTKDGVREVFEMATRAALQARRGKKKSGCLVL

Row | Target | thermal stability z-score [1] | thermal stability z-score [2, 3] | thermal stability z-score ([2]; arsenate co-treatment: none)
1 | RFC1 (UniProt P35251) | -0.0625 | -0.248 | 1.77
2 | RFC2 (UniProt P35250) | 0.381 | -0.0963 | -0.26
3 | RFC3 (UniProt P40938) | -0.0936 | -0.548 | -0.365
4 | RFC4 (UniProt P35249) | 0.802 | -0.184 | -0.331
5 | RFC5 (UniProt P40937) | 0.971 | -0.341 | -0.0735
6 | RFK (UniProt Q969G6) | 0.313 | -0.697 | -0.27
7 | RFT1 (UniProt Q96AA3) | -0.609 | -0.878 | -0.767
8 | RFX1 (UniProt P22670) | 0.128 | 1.04 | 0.453
9 | RFX5 (UniProt P48382) | 0.132 | 0.562 | 0.613
10 | RGS10 (UniProt O43665) | 0.0472 | 0.748 | 0.902
11 | RHBDD2 (UniProt Q6NTF9) | -0.574 | -0.424 | -0.384
12 | RHBDF2 (UniProt Q6PJF5) | 0.166 | -0.0324 | -0.158
13 | RHEB (UniProt Q15382) | 1.46 | -0.13 | 0.625
14 | RHOA (UniProt P61586) | 0.103 | 0.316 | 0.411
15 | RHOB (UniProt P62745) | -0.245 | 0.0865 | 0.065
16 | RHOBTB3 (UniProt O94955) | -0.0881 | 0.00346 | 0.217
17 | RHOC (UniProt P08134) | 0.995 | 0.307 | 0.963
18 | RHOF (UniProt Q9HBH0) | 0.478 | 0.288 | 0.301

Row | Target | thermal stability z-score [1] | thermal stability z-score [2, 3] | thermal stability z-score ([2]; arsenate co-treatment: none)
19 | RHOG (UniProt P84095) | 0.00682 | 0.489 | 0.491
20 | RHOT1 (UniProt Q8IXI2) | -0.708 | -0.488 | -0.262
21 | RHOT2 (UniProt Q8IXI1) | -0.176 | -0.832 | -0.929
22 | RHPN2 (UniProt Q8IUC4) | 0.193 | -0.97 | -1.32
23 | RIC8A (UniProt Q9NPQ8) | 0.476 | -0.305 | -0.238
24 | RIC8B (UniProt Q9NVN3) | -0.00195 | -1.09 | -0.233
25 | RICTOR (UniProt Q6R327) | 0.166 | -1.23 | -0.161
26 | RIF1 (UniProt Q5UIP0) | -0.353 | 0.0548 | -0.0166
27 | RILP (UniProt Q96NA2) | 0.0653 | -0.0778 | 0.284
28 | RILPL1 (UniProt Q5EBL4) | 1.21 | 0.571 | 0.0309
29 | RIN1 (UniProt Q13671) | 0.0874 | -0.105 | -0.041
30 | RING1 (UniProt Q06587) | -0.0985 | -0.0364 | 0.0555
31 | RINT1 (UniProt Q6NUQ1) | 0.354 | -0.699 | -0.111
32 | RIOK1 (UniProt Q9BRS2) | -1.27 | -0.529 | -0.513
33 | RIOK2 (UniProt Q9BVS4) | -0.171 | -0.0928 | -0.423
34 | RIOK3 (UniProt O14730) | 0.507 | -0.0448 | -0.0085
35 | RIPK1 (UniProt Q13546) | 0.39 | -0.595 | -1.03
